Measured values taken from patent US7838495B2, “Compositions and methods of use of EPB1, and ErbB3 binding protein” (University of Maryland, Baltimore, priority 2007, dated 2010).

Columns and labels:
Assay type in all cases: cell-based, human
[1] = test system: C81 cells; assay: Sensitivity of C81 transfectants to chemotherapeutic drugs (MTT); details: for sensitivity to Docetaxel: androgen deprived conditions; for decrease of growth: 20 nM, steroid reduced media
Description: FIG. 4A-C. […] Equal numbers (5×10^4) of vector or EBP1 stably transfected cells were plated at Day 0 in complete media and viable cell numbers determined at the indicated times. Each point represents mean±S.E. of 3 wells. Representative of 3 experiments (Right panel). Colony growth in soft agar. C81 cells stably transfected with either pcDNA or EBP1 were plated in soft agar at the cell densities indicated and colony numbers assessed at Day 10. Each point represents mean±S.E. of 3 dishes. Data is representative of 3 experiments. B. (Left Panel) Response of EBP1 and vector transfected C81 cells to dihydrotestosterone (DHT). EBP1 and vector control C81 transfected cells and early passage LNCaP cells were plated in complete media at 5×10^3 cells/well in 96 well plates for one day. The next day, cells were switched to steroid reduced medium for two days as described in the Materials and Methods. DHT was then added at the indicated concentrations. Cells were refed media every 3 days. Total cell numbers were determined seven days later by MTT assays. Each point represents mean±S.E. of 6 wells. Data is representative of two experiments. (Right Panel) Effect of Bicalutamide on DHT stimulated growth. Cells were plated as described in the Materials and Methods. After 2 days in steroid reduced medium, cells were fed with fresh steroid reduced medium with or without 10 μM bicalutamide (Casodex) in the presence or absence of 10 nM DHT. Total cell numbers were assessed 7 days later by MTT assay. Cells were refed media every 3 days. The data shown are mean±S.E. of six wells. […] C. […] C81 vector control or EBP1 transfectants were plated in 96 well plates in complete media and allowed to attach overnight. The cells were then placed in steroid reduced media for two days and then refed with steroid reduced media in the presence of the indicated concentrations of Docetaxel (left panel) or Mitoxantrone (right panic). Total cell numbers were determined by MTT assays 5 days later. Each point represents mean±S.E. of 6 wells. Data is representative of two experiments.
Western Blot Analysis. Western blot analysis was performed as previously described (19). The Ebp1 antibody was from Upstate (Lake Placid, N.Y.), the polyclonal antibody to actin from Sigma, the AKT and phospho AKT antibodies from Cell Signaling (Beverly, Mass.) and the AGR2 antibody was previously described (20) Cell Growth Assays Cell growth measurement in complete media was performed as described using a hemocytometer (21). For soft agar growth assays, increasing concentrations of cells (as indicated) were plated in 35 mm Petri dishes in 0.3% agar in complete media and colonies were counted after 10 days of incubation (21). For studies assessing the effect of DHT, HRG or chemotherapeutic agents on cell growth, cells (5×10^3) were plated in 96 well plates in complete media. After a 24-hour attachment period, the medium was replaced with steroid free medium [phenol red free RPMI 1640 and 5% charcoal stripped fetal bovine serum (Sigma)]. After 48 hours of steroid depletion, cells were refed with fresh steroid reduced medium with or without the indicated concentrations of DHT, bicalutamide (Casodex) (10 μM), HRG or the chemotherapeutic drugs at the concentrations indicated. Relative cell growth was determined using a Promega Proliferation Reagent (Promega, Madison Wis.) as per manufacturer's instructions with absorbance being read at […] using a Dynex plate reader. […]

[2] = test system: LNCaP cells; assay: Response of A16 and C13 LNCaP cells to docetaxel (MTT)
Description: FIG. 7A-C. Suppression of EBP1 by shRNA promotes a hormone refractory phenotype A. Western blot analysis of Ebp1. Lysates of LNCaP cells stably transduced with a control lentivirus (A16) or an EBP1 targeted shRNA (13C) were collected and resolved by SDS-PAGE. Western blots were probed for endogenous EBP1 or ACTIN as indicated. B. Inhibition of EBP1 expression abrogates the ability of HRG to arrest growth (Left panel) Control and shRNA EBP1 targeted cells were plated in complete media at […] for one day. The next day, cells were switched to steroid reduced-media and HRG added at the indicated concentrations. Total cell numbers were determined seven days later by MTT assay. Each point represents mean±S.E. of 6 wells. Data is representative of three experiments. (Right Panel) AKT phosphorylation in EBP1 knock out cells Control (A16) or EBP 1 knock out cells (C13) were treated with HRG (20 ng/ml) for 15 mm and cell lysates assessed for the presence of phospho and total AKT as indicated. C. […] Sixteen hours later, luciferase activity was measured. […] Lysates of logarithmically growing A16 and C13 cells were resolved by SDS-PAGE and analyzed by Western blotting using antibodies to AGR2 and ACTIN as indicated. […] The viability of the cells was determined by MTT assays 5 days later. […]

[3] = test system: MCF-7 cells; assay: Growth of MCF-7 vector control and EBP1 transfectants in response to HRG or EGF
Description: FIG. 9A-D. Ectopic expression of EBP1 blocks HRG-induced proliferation. (A) MCF 7 cells were stably transfected with a control Flag vector (CMV) or a FLAG-EBP1 vector (EBP1). Cells lysates were analyzed by Western blotting for FLAG and actin levels as indicated (left panel) or EBP1 and actin (right panel). (B) MCF-7 vector control (Control) or EBP1 transfected cells (EBP1) were plated in 96-well plates in complete media overnight, and then switched to media with 2% FBS and the indicated concentrations of HRGb1 as described in Section 2. Growth was determined 4 days later using a Promega Proliferation Assay. Each point represents the mean±SD for six wells. Data shown are representative of three experiments. (C) AU565 vector control (Control) or EBP1 transfected cells (EBP1) were plated in 96-well plates in complete media overnight, and then switched to media with 2% FBS and the indicated concentrations of HRGβ1. Growth was determined 4 days later using a Promega Proliferation Assay. Each point represents the mean±SD for six wells and is representative of two experiments. […] Growth was determined 4 days later using a Promega Proliferation Assay. […]
2.5. […] Protein concentrations were measured using a detergent compatible kit (Bio-Rad). […] Images were quantified using IMAGE-J software (NIH). […]

With `CC(=O)O[C@@]12CO[C@@H]1C[C@H](O)[C@@]1(C)C(=O)[C@H](O)C3=C(C)[C@@H](OC(=O)[C@H](O)[C@@H](NC(=O)OC(C)(C)C)c4ccccc4)C[C@@](O)([C@@H](OC(=O)c4ccccc4)[C@H]21)C3(C)C` [Docetaxel] the “sensitivity to Docetaxel” value ([1]; C81 cells) was “relatively refractory”, the “sensitivity to Docetaxel” value ([1]; EBP1 transfected C81 cells, 5-20 nM) was “significantly more sensitive” and the reduction in growth ([2]; A16 control LNCaP cells, 5 nM) was 65%. The inhibition at 0.02 µM ([2]; Homo sapiens, C13 EBP1 knock down LNCaP cells, 20 nM, read-out: maximum growth inhibition) was 15%.
With `O=C1c2c(O)ccc(O)c2C(=O)c2c(NCCNCCO)ccc(NCCNCCO)c21` [Mitoxantrone] the decrease of growth ([1]; C81 EBP1 transfectants) was “approximately 80%”, the decrease of growth ([1]; C81 vector controls) was 40% and the “concentration at which sensitivity plateaued” value ([1]; both vector control and EBP1 transfectants) was 20 nM.
“EGF: growth factor from Sigma used to stimulate MCF-7 growth” was tested, and the “growth response to EGF” value ([3]; MCF-7 EBP1 transfected cells) was “growth stimulated by EGF to the same extent as control cells” and the “growth response to EGF” value ([3]; MCF-7 control cells) was “able to respond to EGF”.
